According to patent publication US20050256037A1, “Antibacterial amide macrocyles” (Bayer HealthCare AG, priority 2003, published 2005):
≈ marks a conversion by molar mass, not a printed value. Structures can show the parent of a compound that is named as a salt. Where two headings read alike, the source gives them in different places. Marks after values point to notes of the source that are not given here.

How the values were obtained:
Format in all cases: cell-based
S. aureus E33 = test: MIC, liquid dilution test in minimal medium (96-well microtitre plate); conditions: Staphylococcus aureus
Experimental: (§1) Determination of the Minimum Inhibitory Concentration (MIC)
(§2) The minimum inhibitory concentration (MIC) is the minimum concentration of an antibiotic with which the growth of a test microbe is inhibited over 18-24 h. The inhibitor concentration can in these cases be determined by standard microbiological methods (see, for example, The National Committee for Clinical Laboratory Standards. Methods for dilution antimicrobial susceptibility tests for bacteria that grow aerobically; approved standard-fifth edition. NCCLS document M7-A5 [ISBN 1-56238-394-9]. NCCLS, 940 West Valley Road, Suite 1400, Wayne, Pa. 19087-1898 USA, 2000). The MIC of the compounds of the invention is determined in the liquid dilution test on the 96-well microtitre plate scale. The bacterial microbes are cultivated in a minimal medium (18.5 mM Na2HPO4, 5.7 mM KH2PO4, 9.3 mM NH4Cl, 2.8 mM MgSO4, 17.1 mM NaCl, 0.033 μg/ml thiamine hydrochloride, 1.2 μg/ml nicotinic acid, 0.003 μg/ml biotin, 1% glucose, 25 μg/ml of each proteinogenic amino acid with the exception of phenylalanine; [H.-P. Kroll; unpublished]) with addition of 0.4% BH broth (test medium). In the case of Enterococcus faecium L4001, heat-inactivated fetal calf serum (FCS; GibcoBRL, Germany) is added to the test medium in a final concentration of 10%. Overnight cultures of the test microbes are diluted to an OD578 of 0.001 (to 0.01 in the case of enterococci) in fresh test medium, and incubated 1:1 with dilutions of the test substances (1:2 dilution steps) in test medium (200 μl final volume). The cultures are incubated at 37° C. for 18-24 hours; enterococci in the presence of 5% CO2.
(§3) The lowest substance concentration in each case at which bacterial growth was no longer visible is defined as the MIC. […] The compounds show a graded antibacterial effect against most of the test microbes.

E. faecium L4001 [1] = test: as above; conditions: Enterococcus faecium
Experimental: as §1, §2, §3

S. aureus T17 [2] = test: as above; conditions: Staphylococcus aureus, T17, read-out: MIC S. aureus T17
Experimental: as §1, §2, §3
The S. aureus strain T17 is isolated in vivo. CFW1 mice are infected intraperitoneally with 4×10^7 S. aureus 133 cells per mouse. 0.5 h after the infection, the animals are treated intravenously with 50 mg/kg biphenomycin B. The kidneys are removed from the surviving animals on day 3 after the infection. After homogenization of the organs, the homogenates are plated out as described for RN4220Bi^R on antibiotic-free and antibiotic-containing agar plates and incubated at 37° C. overnight. […] About 20 of these colonies are tested for the biphenomycin B MIC, and a colony with an MIC of >50 μM is selected for further cultivation, and the strain is referred to a T17.

S. aureus RN4220Bi^R = test: Rate of spontaneous resistance
Experimental: (§4) Determination of the Rates of Spontaneous Resistance to S. aureus
(§5) The spontaneous resistance rates for the compounds of the invention are determined as follows: the bacterial microbes are cultivated in 30 ml of a minimal medium (18.5 mM Na2HPO4, 5.7 mM KH2PO4, 9.3 mM NH4Cl, 2.8 mM MgSO4, 17.1 mM NaCl, 0.033 μg/ml thiamine hydrochloride, 1.2 μg/ml nicotinic acid, 0.003 μg/ml biotin, 1% glucose, 25 μg/ml of each proteinogenic amino acid with the addition of 0.4% BH broth) at 37° C. overnight, centrifuged at 6000×g for 10 min and resuspended in 2 ml of phosphate-buffered physiological NaCl solution (about 2×10^9 microbes/ml). […] The resulting colonies (cfu) are counted.

S. aureus T17 [3] = test: Rate of spontaneous resistance; conditions: 10 × MIC
Experimental: as §4, §5

S. aureus RN4220 = test: Rate of spontaneous resistance
Experimental: as §4, §5

E. faecium L4001 [4] = test: Rate of spontaneous resistance
E. faecalis ICB 27159 = test: Rate of spontaneous resistance; conditions: * = colonies with increased MIC (4-8-fold) were isolated
S. pneumoniae G9a = test: Rate of spontaneous resistance; conditions: 5 × MIC; * = colonies with increased MIC (4-8-fold) were isolated
[5] = E33, read-out: MIC S. aureus E33
[6] = L4001, read-out: MIC E. faecium L4001

| SMILES | MIC (S. aureus E33; [5]) | MIC (E. faecium L4001 [1]; [6]) | MIC (S. aureus T17 [2]) | Rate of spontaneous resistance S. aureus RN4220Bi^R (S. aureus RN4220Bi^R; 10 × MIC) | Rate of spontaneous resistance S. aureus T17 (S. aureus T17 [3]) | Rate of spontaneous resistance S. aureus RN4220 (S. aureus RN4220; 10 × MIC) | Rate of spontaneous resistance E. faecium L4001 (E. faecium L4001 [4]; 5 × MIC) | Rate of spontaneous resistance E. faecium L4001 (E. faecium L4001 [4]; 10 × MIC) | Rate of spontaneous resistance E. faecalis ICB 27159 (E. faecalis ICB 27159; 5 × MIC) | Rate of spontaneous resistance E. faecalis ICB 27159 (E. faecalis ICB 27159; 10 × MIC) | Rate of spontaneous resistance S. pneumoniae G9a (S. pneumoniae G9a) | Rate of spontaneous resistance S. aureus RN4220Bi^R (S. aureus RN4220Bi^R) | Rate of spontaneous resistance S. aureus RN4220 (S. aureus RN4220) | MIC (S. aureus E33; E33, Table A, liquid dilution, 18-24 h, 37° C., read-out: MIC S. aureus E33) | MIC (E. faecium L4001 [1]; L4001, Table A, liquid dilution, 10% FCS, 5% CO2, read-out: MIC E. faecium L4001) |
| --- | --- | --- | --- | --- | --- | --- | --- | --- | --- | --- | --- | --- | --- | --- | --- |
| CN1C(=O)[C@H](C[C@@H](O)CN)NC(=O)[C@@H](N)Cc2cc(ccc2O)-c2ccc(O)c(c2)C[C@H]1C(=O)NCCN [Example 1, (8S,11S,14S)-14-amino-N-(2-aminoethyl)-11-[(2R)-3-amino-2-hydroxypropyl]-5,17-dihydroxy-9-methyl-10,13-dioxo-9,12-diazatricyclo[14.3.1.1.^2,6]henicosa-1(20),2(21),3,5,16,18-hexaene-8-carboxamide, trihydrochloride] | 3.1 µM | 12.5 µM | 3.1 µM | <6 × 10^−8 | <4 × 10^−8 | <6 × 10^−8 | – | – | – | – | – | – | – | – | – |
| NCCC[C@@H]1NC(=O)[C@@H](N)Cc2cc(ccc2O)-c2ccc(O)c(c2)C[C@@H](C(=O)NCCN)NC1=O [Example 6, (8S,11S,14S)-14-amino-N-(2-aminoethyl)-11-(3-aminopropyl)-5,17-dihydroxy-10,1 3-dioxo-9,12-diazatricyclo[14.3.1.1^2,6]henicosa-1(20),2(21),3,5,16,18-hexaene-8-carboxamide] | 3.1 µM (≈ 1.55 µg/mL) | > 50 µM | 3.1 µM (≈ 1.55 µg/mL) | <4 × 10^−9 | – | <6 × 10^−9 | 4 × 10^−8 | <4 × 10^−9 | <4 × 10^−9* | <4 × 10^−10* | <4 × 10^−8* | <8 × 10^−9* | <6 × 10^−9* | – | – |
| NC[C@H](O)C[C@@H]1NC(=O)[C@@H](N)Cc2cc(ccc2O)-c2ccc(O)c(c2)C[C@@H](C(=O)O)NC1=O [Example 20A, 14(S)-Amino-1(S)-(3-amino-2(R)-hydroxypropyl)-5,17-dihydroxy-10,13-dioxo-9,12-diazatricyclo[14.3.1.1^2,6]henicosa-1(19),2,4,6(21),16(20),17-hexaene-8(S)-carboxylic acid dihydrochloride, reference compound] | – | – | > 25 µM | – | – | – | – | – | – | 4.1 × 10^−6 | – | – | – | 0.1 µM | > 25 µM |
